Experiments:
[1] = DRUGMATRIX: Glutamate, NMDA, Phencyclidine radioligand binding (ligand: [3H] TCP); format: cell membranes, Rattus norvegicus, Wistar, Cerebral cortex, Membrane; details: Not Active = under 50% inhibition at 10 µM
[2] = biological target: T1, Cysteinyl leukotriene receptor 1 (Homo sapiens, UniProt Q9Y271); format: cell membranes, CHO-K1, Membrane; details: cho-k1; note: in other assays of this panel Not Active means under 50% inhibition at 10 µM
T1 sequence (Q9Y271 whole entry): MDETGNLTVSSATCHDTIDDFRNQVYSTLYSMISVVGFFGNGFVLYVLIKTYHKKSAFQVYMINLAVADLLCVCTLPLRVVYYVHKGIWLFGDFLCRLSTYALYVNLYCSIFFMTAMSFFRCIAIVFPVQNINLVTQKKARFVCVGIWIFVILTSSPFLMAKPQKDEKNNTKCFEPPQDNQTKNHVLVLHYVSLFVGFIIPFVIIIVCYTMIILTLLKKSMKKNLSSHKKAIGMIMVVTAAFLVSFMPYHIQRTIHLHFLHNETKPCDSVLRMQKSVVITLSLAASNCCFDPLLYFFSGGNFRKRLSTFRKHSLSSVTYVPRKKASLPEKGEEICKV

[3] = DRUGMATRIX: Glutamate, Kainate radioligand binding (ligand: [3H] Kainic acid); format: cell membranes, Rattus norvegicus, Wistar, Brain, Membrane; details: Not Active = under 50% inhibition at 10 µM
Substance-P receptor = Substance-P receptor (Homo sapiens, UniProt P25103); format: cell membranes, Membrane; details: cho; note: in other assays of this panel Not Active means under 50% inhibition at 10 µM
Cytochrome P450 2D6 = Cytochrome P450 2D6 (Homo sapiens, UniProt P10635); details: bti-tn-5b1-4; note: in other assays of this panel Not Active means under 50% inhibition at 10 µM
[4] = biological target: T2, C-C chemokine receptor type 4 (Homo sapiens, UniProt P51679); format: cell membranes, Membrane; details: chem-1; note: in other assays of this panel Not Active means under 50% inhibition at 10 µM
T2 sequence (P51679 whole entry): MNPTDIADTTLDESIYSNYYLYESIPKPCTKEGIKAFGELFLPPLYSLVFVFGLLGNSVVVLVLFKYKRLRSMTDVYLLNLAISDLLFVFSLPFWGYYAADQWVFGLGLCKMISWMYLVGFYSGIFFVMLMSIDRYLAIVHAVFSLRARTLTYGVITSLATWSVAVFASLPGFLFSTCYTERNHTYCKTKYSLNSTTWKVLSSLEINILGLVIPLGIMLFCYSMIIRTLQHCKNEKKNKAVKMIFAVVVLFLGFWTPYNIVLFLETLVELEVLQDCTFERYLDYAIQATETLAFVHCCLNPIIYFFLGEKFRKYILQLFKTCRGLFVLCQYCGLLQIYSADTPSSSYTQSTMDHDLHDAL

Melanocortin receptor 3 = Melanocortin receptor 3 (Homo sapiens, UniProt P41968); format: cell membranes, Membrane; details: hek293; note: in other assays of this panel Not Active means under 50% inhibition at 10 µM
[5] = DRUGMATRIX: Leukotriene, BLT (LTB4) radioligand binding (ligand: [3H]LTB4); format: cell membranes, Membrane; details: u-937; Not Active = under 50% inhibition at 10 µM
Estrogen receptor beta = Estrogen receptor beta (Homo sapiens, UniProt Q92731); details: sf9; note: in other assays of this panel Not Active means under 50% inhibition at 10 µM
[6] = DRUGMATRIX: Calcium Channel Type L, Dihydropyridine radioligand binding (ligand: [3H] Nitrendipine); format: cell membranes, Rattus norvegicus, Wistar, Cerebral cortex, Membrane; details: Not Active = under 50% inhibition at 10 µM
[7] = biological target: T3, Neuropeptide Y receptor type 2 (Homo sapiens, UniProt P49146); format: cell membranes, Membrane; details: kan-ts; note: in other assays of this panel Not Active means under 50% inhibition at 10 µM
T3 sequence (P49146 whole entry): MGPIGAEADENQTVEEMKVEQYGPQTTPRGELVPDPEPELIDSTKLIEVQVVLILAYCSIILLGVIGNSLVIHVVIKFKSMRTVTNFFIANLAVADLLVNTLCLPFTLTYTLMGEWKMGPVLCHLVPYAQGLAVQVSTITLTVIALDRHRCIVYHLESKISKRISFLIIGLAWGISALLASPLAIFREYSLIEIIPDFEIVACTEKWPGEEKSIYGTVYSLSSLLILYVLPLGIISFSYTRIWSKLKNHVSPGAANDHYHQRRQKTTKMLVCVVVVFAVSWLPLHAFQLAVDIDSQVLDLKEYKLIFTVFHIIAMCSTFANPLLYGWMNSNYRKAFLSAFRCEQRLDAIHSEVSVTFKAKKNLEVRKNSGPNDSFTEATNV

Chain of Substance-P receptor (P25103 whole entry): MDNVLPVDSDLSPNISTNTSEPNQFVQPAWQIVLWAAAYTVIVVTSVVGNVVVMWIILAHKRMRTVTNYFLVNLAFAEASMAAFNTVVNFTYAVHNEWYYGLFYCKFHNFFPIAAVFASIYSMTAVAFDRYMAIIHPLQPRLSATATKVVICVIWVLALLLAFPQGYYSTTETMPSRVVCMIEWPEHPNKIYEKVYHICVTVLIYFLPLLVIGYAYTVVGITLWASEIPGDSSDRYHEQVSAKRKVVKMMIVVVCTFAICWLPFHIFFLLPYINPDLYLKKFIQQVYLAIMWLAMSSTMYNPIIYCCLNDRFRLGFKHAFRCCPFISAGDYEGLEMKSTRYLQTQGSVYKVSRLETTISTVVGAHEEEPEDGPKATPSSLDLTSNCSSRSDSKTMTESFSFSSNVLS
Chain of Estrogen receptor beta (Q92731 whole entry): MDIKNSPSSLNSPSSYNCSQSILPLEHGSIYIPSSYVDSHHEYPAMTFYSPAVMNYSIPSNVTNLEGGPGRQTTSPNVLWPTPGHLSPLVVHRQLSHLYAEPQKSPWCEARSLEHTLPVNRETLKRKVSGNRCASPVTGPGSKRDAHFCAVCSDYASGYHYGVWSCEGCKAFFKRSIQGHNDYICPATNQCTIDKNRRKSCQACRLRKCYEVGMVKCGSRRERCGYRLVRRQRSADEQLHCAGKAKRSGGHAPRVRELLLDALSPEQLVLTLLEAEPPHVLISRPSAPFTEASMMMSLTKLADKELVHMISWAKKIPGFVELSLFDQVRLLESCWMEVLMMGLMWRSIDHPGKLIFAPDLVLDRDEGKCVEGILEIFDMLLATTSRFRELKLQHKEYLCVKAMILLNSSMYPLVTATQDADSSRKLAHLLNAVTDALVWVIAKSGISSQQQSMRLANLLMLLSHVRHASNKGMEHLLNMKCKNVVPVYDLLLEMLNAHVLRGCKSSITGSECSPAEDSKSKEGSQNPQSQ
Chain of Cytochrome P450 2D6 (P10635 whole entry): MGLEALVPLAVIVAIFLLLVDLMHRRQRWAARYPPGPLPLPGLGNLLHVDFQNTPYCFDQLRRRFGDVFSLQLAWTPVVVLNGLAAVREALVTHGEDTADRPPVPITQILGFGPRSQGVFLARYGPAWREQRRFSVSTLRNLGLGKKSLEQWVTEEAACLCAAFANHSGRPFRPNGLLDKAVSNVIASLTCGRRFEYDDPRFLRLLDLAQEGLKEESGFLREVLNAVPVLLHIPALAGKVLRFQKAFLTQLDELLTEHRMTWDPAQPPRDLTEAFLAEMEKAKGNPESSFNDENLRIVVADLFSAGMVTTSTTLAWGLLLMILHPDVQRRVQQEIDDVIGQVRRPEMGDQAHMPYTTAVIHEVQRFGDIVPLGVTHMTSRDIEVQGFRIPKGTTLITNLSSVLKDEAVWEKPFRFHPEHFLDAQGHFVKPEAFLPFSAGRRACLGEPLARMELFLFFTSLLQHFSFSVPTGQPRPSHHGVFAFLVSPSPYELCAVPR
Chain of Melanocortin receptor 3 (P41968 whole entry): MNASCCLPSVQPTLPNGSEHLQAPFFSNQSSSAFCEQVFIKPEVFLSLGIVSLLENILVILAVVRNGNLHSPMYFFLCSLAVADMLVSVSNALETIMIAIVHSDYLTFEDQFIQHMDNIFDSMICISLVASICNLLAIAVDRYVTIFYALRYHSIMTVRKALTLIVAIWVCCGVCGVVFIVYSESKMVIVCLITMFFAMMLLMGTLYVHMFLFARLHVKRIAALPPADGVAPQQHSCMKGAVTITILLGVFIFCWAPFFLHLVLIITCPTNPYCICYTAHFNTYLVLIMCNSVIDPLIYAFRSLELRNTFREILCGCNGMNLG

N[C@H](CSC(=S)NCc1ccccc1)C(=O)O
Not Active: IC50 [1] | Ki [1] | IC50 [2] | IC50 [3] | Ki [3] | IC50 (Substance-P receptor) | IC50 (Cytochrome P450 2D6) | Ki (Cytochrome P450 2D6) | IC50 [4] | IC50 (Melanocortin receptor 3) | IC50 [5] | Ki [5] | IC50 (Estrogen receptor beta) | IC50 [6] | Ki [6] | IC50 [7]

Cc1cccc(Nc2ccncc2S(=O)(=O)NC(=O)NC(C)C)c1 [TORSEMIDE]
Not Active: IC50 [1] | Ki [1] | IC50 [2] | IC50 [3] | Ki [3] | IC50 (Substance-P receptor) | IC50 (Cytochrome P450 2D6) | Ki (Cytochrome P450 2D6) | IC50 [4] | IC50 (Melanocortin receptor 3) | IC50 [5] | Ki [5] | IC50 (Estrogen receptor beta) | IC50 [6] | Ki [6] | IC50 [7]

O=C1CCC(N2C(=O)c3ccccc3C2=O)C(=O)N1 (configuration not stated) [THALIDOMIDE]
Not Active: IC50 [1] | Ki [1] | IC50 [2] | IC50 [3] | Ki [3] | IC50 (Substance-P receptor) | IC50 (Cytochrome P450 2D6) | Ki (Cytochrome P450 2D6) | IC50 [4] | IC50 (Melanocortin receptor 3) | IC50 [5] | Ki [5] | IC50 (Estrogen receptor beta) | IC50 [6] | Ki [6] | IC50 [7]

CC(C)CC(N(C)C)C1(c2ccc(Cl)cc2)CCC1 (configuration not stated) [SIBUTRAMINE]
Not Active: IC50 [1] | Ki [1] | IC50 [2] | IC50 [3] | Ki [3] | IC50 (Substance-P receptor) | IC50 (Cytochrome P450 2D6) | Ki (Cytochrome P450 2D6) | IC50 [4] | IC50 (Melanocortin receptor 3) | IC50 [5] | Ki [5] | IC50 (Estrogen receptor beta) | IC50 [6] | Ki [6] | IC50 [7]

[H]/N=C(/N)N[C@H]1[C@H](O)[C@@H](O)[C@H](O[C@@H]2O[C@@H](C)[C@](O)(C=O)[C@H]2O[C@@H]2O[C@@H](CO)[C@H](O)[C@@H](O)[C@@H]2NC)[C@@H](N/C(N)=N\[H])[C@@H]1O [STREPTOMYCIN]
Not Active: IC50 [1] | Ki [1] | IC50 [2] | IC50 [3] | Ki [3] | IC50 (Substance-P receptor) | IC50 (Cytochrome P450 2D6) | Ki (Cytochrome P450 2D6) | IC50 [4] | IC50 (Melanocortin receptor 3) | IC50 [5] | Ki [5] | IC50 (Estrogen receptor beta) | IC50 [6] | Ki [6] | IC50 [7]

CC(C)C[C@H](NC(=O)[C@@H](O)[C@H](N)Cc1ccccc1)C(=O)O [UBENIMEX]
Not Active: IC50 [1] | Ki [1] | IC50 [2] | IC50 [3] | Ki [3] | IC50 (Substance-P receptor) | IC50 (Cytochrome P450 2D6) | Ki (Cytochrome P450 2D6) | IC50 [4] | IC50 (Melanocortin receptor 3) | IC50 [5] | Ki [5] | IC50 (Estrogen receptor beta) | IC50 [6] | Ki [6] | IC50 [7]

Cc1onc(-c2ccccc2)c1-c1ccc(S(N)(=O)=O)cc1 [VALDECOXIB]
Not Active: IC50 [1] | Ki [1] | IC50 [2] | IC50 [3] | Ki [3] | IC50 (Substance-P receptor) | IC50 (Cytochrome P450 2D6) | Ki (Cytochrome P450 2D6) | IC50 [4] | IC50 (Melanocortin receptor 3) | IC50 [5] | Ki [5] | IC50 (Estrogen receptor beta) | IC50 [6] | Ki [6] | IC50 [7]

From ChEMBL document CHEMBL1909046, “DrugMatrix in vitro pharmacology data”
